According to patent US20250215030A1, “STAT MODULATORS AND USES THEREOF” (Recludix Pharma, Inc., priority 2022, published 2025):

Key:
[1] = target: T1, Recombinant STAT3 protein (STAT3(G127-I722)) (Homo sapiens, UniProt P40763); assay: STAT3 Fluorescence Polarization (FP) Assay; format: binding; details: STAT3(G127-I722) 25 nM, probe 5-FAM-GpYLPQTV-NH2 2 nM, 45-minute incubation
T1 construct: STAT3(G127-I722)
How it was run: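 Serially diluted compounds (1% DMSO) were mixed with 2 nM fluorescent phosphotyrosine peptide and 25 nM STAT3 construct G127-I722, pH 7.4, incubated 45 min at room temperature. IC50 values from fitted polarization curves are reported as categories A (≤100 nM), B, C, D (>10 μM).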

[2] = target: T2, Recombinant STAT6 protein (STAT6(W123-T658)) (Homo sapiens, UniProt P42226); assay: STAT6 Fluorescence Polarization (FP) Assay; format: binding; details: STAT6(W123-T658) 250 nM, probe 5-FAM-ApYKPFQDLI-NH2 2 nM, 45-minute incubation
T2 construct: STAT6(W123-T658)
T2 sequence (P42226 123-658): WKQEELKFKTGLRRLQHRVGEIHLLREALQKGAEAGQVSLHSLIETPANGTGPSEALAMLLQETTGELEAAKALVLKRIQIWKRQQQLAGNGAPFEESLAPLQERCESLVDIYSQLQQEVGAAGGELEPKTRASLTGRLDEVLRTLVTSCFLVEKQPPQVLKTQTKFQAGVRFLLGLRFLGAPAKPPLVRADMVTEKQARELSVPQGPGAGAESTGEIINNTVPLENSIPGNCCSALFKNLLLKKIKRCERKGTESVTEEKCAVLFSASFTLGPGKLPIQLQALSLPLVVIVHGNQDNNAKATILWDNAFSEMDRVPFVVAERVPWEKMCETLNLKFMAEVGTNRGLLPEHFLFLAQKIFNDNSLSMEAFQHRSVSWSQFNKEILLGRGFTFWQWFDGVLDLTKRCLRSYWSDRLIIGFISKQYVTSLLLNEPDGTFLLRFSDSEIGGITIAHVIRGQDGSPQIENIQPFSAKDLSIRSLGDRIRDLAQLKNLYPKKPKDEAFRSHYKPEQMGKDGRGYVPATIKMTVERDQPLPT
How it was run: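 Competitive displacement of a fluorescent phosphotyrosine peptide (2 nM) from recombinant STAT6 W123-T658 (250 nM), 45 min at room temperature in 10 mM HEPES pH 7.4, 50 mM NaCl, 2 mM DTT. mP fitted against log compound for IC50, grouped A (≤300 nM) to D (>30 μM).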

T1 sequence (P40763 127-722, species assumed): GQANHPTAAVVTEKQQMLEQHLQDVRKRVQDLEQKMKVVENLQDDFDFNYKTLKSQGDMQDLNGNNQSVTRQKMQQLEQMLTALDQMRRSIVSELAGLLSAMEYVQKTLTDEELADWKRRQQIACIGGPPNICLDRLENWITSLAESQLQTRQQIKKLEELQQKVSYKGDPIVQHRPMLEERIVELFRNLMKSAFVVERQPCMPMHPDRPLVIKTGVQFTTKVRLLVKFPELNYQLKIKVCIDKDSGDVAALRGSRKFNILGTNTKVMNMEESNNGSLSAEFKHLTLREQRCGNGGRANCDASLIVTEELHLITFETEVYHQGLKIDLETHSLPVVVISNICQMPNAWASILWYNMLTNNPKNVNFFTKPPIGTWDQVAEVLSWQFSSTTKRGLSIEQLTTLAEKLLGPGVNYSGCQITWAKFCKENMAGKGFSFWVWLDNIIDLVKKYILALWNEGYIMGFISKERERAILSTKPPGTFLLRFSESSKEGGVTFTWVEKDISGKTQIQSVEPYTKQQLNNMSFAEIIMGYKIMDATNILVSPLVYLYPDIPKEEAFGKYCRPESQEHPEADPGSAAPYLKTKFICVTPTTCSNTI

Compound	IC50 [1]	IC50 [2]
O=C(N[C@H]1C[C@@H]2C[C@@H]2C[C@H]2CC[C@@H](C(=O)N3CC(Cc4ccncc4)C3)N2C1=O)c1cc2cc(CP(=O)(O)O)ccc2s1 [Example 352, ((2-(((3S,6S,7aS,8aR,9aR)-5-oxo-3-(3-(pyridin-4-ylmethyl)azetidine-1-carbonyl)decahydro-1H-cyclopropa[d]pyrrolo[1,2-a]azocin-6-yl)carbamoyl)benzo[b]thiophen-5-yl)methyl)phosphonic acid]	0.1 to 1 µM	> 30 µM
O=C(N[C@H]1C[C@@H]2C[C@@H]2C[C@H]2CC[C@@H](C(=O)N3CC4(CC(=O)c5nccn54)C3)N2C1=O)c1cc2cc(C(F)(F)P(=O)(O)O)ccc2s1 [Compound 90, (difluoro(2-(((3S,6S,7aS,8aR,9aR)-5-oxo-3-(7′-oxo-6′,7′-dihydrospiro[azetidine-3,5′-pyrrolo[1,2-a]imidazole]-1-carbonyl)decahydro-1H-cyclopropa[d]pyrrolo[1,2-a]azocin-6-yl)carbamoyl)benzo[b]thiophen-5-yl)methyl)phosphonic acid]	< 0.1 µM	0.3 to 3 µM
O=C(N[C@H]1C[C@H]2C[C@H]2C[C@H]2CC[C@@H](C(=O)N[C@H]3CN(c4cccnc4)C[C@@H]3F)N2C1=O)c1cc2cc(C(F)(F)P(=O)(O)O)ccc2s1 [Compound 128, (difluoro(2-(((3S,6S,7aR,8aS,9aR)-3-(((3S,4S)-4-fluoro-1-(pyridin-3-yl)pyrrolidin-3-yl)carbamoyl)-5-oxodecahydro-1H-cyclopropa[d]pyrrolo[1,2-a]azocin-6-yl)carbamoyl)benzo[b]thiophen-5-yl)methyl)phosphonic acid]	< 0.1 µM	0.3 to 3 µM
Cn1cnnc1C1CN(C(=O)[C@@H]2CC[C@@H]3C[C@H]4C[C@H]4C[C@H](NC(=O)c4cc5cc(C(F)P(=O)(O)O)ccc5s4)C(=O)N32)C1 (stereo partly drawn) [Example 304, (fluoro(2-(((3S,6S,7aS,8aR,9aR)-3-(3-(4-methyl-4H-1,2,4-triazol-3-yl)azetidine-1-carbonyl)-5-oxodecahydro-1H-cyclopropa[d]pyrrolo[1,2-a]azocin-6-yl)carbamoyl)benzo[b]thiophen-5-yl)methyl)phosphonic acid]	< 0.1 µM	3 to 30 µM
CN(C)c1ccncc1C1CN(C(=O)[C@@H]2CC[C@@H]3C[C@H]4C[C@H]4C[C@H](NC(=O)c4cc5cc([C@H](F)P(=O)(O)O)ccc5s4)C(=O)N32)C1 (single isomer, unassigned) [Example 407]	< 0.1 µM	3 to 30 µM
COC[C@@H]1CCN1c1ccncc1C1CN(C(=O)[C@@H]2CC[C@@H]3C[C@H]4C[C@H]4C[C@H](NC(=O)c4cc5cc([C@H](F)P(=O)(O)O)ccc5s4)C(=O)N32)C1 (single isomer, unassigned) [Example 411]	0.1 to 1 µM	0.3 to 3 µM
COC[C@@H]1CCN1c1ccncc1C1CN(C(=O)[C@@H]2CC[C@@H]3C[C@H]4C[C@H]4C[C@H](NC(=O)c4cc5cc([C@@H](F)P(=O)(O)O)ccc5s4)C(=O)N32)C1 (single isomer, unassigned) [Example 410]	1 to 10 µM	3 to 30 µM
O=C(N[C@H]1C[C@H]2C[C@H]2C[C@H]2CC[C@@H](C(=O)N3CC(c4nc5ccccc5[nH]4)C3)N2C1=O)c1cc2cc(C(F)(F)P(=O)(O)O)ccc2s1 [Compound 78, ((2-(((3S,6S,7aR,8aS,9aR)-3-(3-(1H-benzo[d]imidazol-2-yl)azetidine-1-carbonyl)-5-oxodecahydro-1H-cyclopropa[d]pyrrolo[1,2-a]azocin-6-yl)carbamoyl)benzo[b]thiophen-5-yl)difluoromethyl)phosphonic acid]	< 0.1 µM	3 to 30 µM
O=C(N[C@H]1C[C@H]2C[C@H]2C[C@H]2CC[C@@H](C(=O)NCC(CO)c3cccnc3)N2C1=O)c1cc2cc(C(F)(F)P(=O)(O)O)ccc2s1 (stereo partly drawn) [Compound 123, (difluoro(2-(((3S,6S,7aR,8aS,9aR)-3-((3-hydroxy-2-(pyridin-3-yl)propyl)carbamoyl)-5-oxodecahydro-1H-cyclopropa[d]pyrrolo[1,2-a]azocin-6-yl)carbamoyl)benzo[b]thiophen-5-yl)methyl)phosphonic acid]	0.1 to 1 µM	3 to 30 µM
CN(C)c1ccncc1C1CN(C(=O)[C@@H]2CC[C@@H]3C[C@H]4C[C@H]4C[C@H](NC(=O)c4cc5cc([C@@H](F)P(=O)(O)O)ccc5s4)C(=O)N32)C1 (single isomer, unassigned) [Example 408]	< 0.1 µM	3 to 30 µM
Cc1cn(C)c(N2C[C@H](NC(=O)[C@@H]3CC[C@@H]4C[C@H]5C[C@H]5C[C@H](NC(=O)c5cc6cc(C(F)P(=O)(O)O)ccc6s5)C(=O)N43)[C@@H](F)C2)n1 (stereo partly drawn) [Example 348, ((2-(((3S,6S,7aS,8aR,9aR)-3-(((3S,4S)-1-(1,4-dimethyl-1H-imidazol-2-yl)-4-fluoropyrrolidin-3-yl)carbamoyl)-5-oxodecahydro-1H-cyclopropa[d]pyrrolo[1,2-a]azocin-6-yl)carbamoyl)benzo[b]thiophen-5-yl)fluoromethyl)phosphonic acid]	< 0.1 µM	3 to 30 µM
O=C(N[C@H]1C[C@@H]2C[C@@H]2C[C@H]2CC[C@@H](C(=O)N[C@H]3CNC[C@@H]3F)N2C1=O)c1cc2cc(CP(=O)(O)O)ccc2s1 [Example 276, ((2-(((3S,6S,7aS,8aR,9aR)-3-(((3S,4S)-4-fluoropyrrolidin-3-yl)carbamoyl)-5-oxodecahydro-1H-cyclopropa[d]pyrrolo[1,2-a]azocin-6-yl)carbamoyl)benzo[b]thiophen-5-yl)methyl)phosphonic acid]	1 to 10 µM	> 30 µM
COC1(c2nccn2C)CN(C(=O)[C@@H]2CC[C@@H]3C[C@@H]4[C@H](C[C@H](NC(=O)c5cc6cc(C(F)(F)P(=O)(O)O)ccc6s5)C(=O)N32)C4(F)F)C1 [Compound 29, ((2-(((3S,6S,7aS,8aR,9aR)-8,8-difluoro-3-(3-methoxy-3-(1-methyl-1H-imidazol-2-yl)azetidine-1-carbonyl)-5-oxodecahydro-1H-cyclopropa[d]pyrrolo[1,2-a]azocin-6-yl)carbamoyl)benzo[b]thiophen-5-yl)difluoromethyl)phosphonic acid]	0.1 to 1 µM	3 to 30 µM
O=C(N[C@H]1C[C@@H]2C[C@@H]2C[C@H]2CC[C@@H](C(=O)N3CC[C@H](N4CCOCC4)C3)N2C1=O)c1cc2cc(C(F)(F)P(=O)(O)O)ccc2s1 [Compound 17, (difluoro(2-(((3S,6S,7aS,8aR,9aR)-3-((S)-3-morpholinopyrrolidine-1-carbonyl)-5-oxodecahydro-1H-cyclopropa[d]pyrrolo[1,2-a]azocin-6-yl)carbamoyl)benzo[b]thiophen-5-yl)methyl)phosphonic acid]	0.1 to 1 µM	3 to 30 µM
CCc1ccncc1C1CN(C(=O)[C@@H]2CC[C@@H]3C[C@H]4C[C@H]4C[C@H](NC(=O)c4cc5cc(CP(=O)(O)O)ccc5s4)C(=O)N32)C1 [Example 252, ((2-(((3S,6S,7aS,8aR,9aR)-3-(3-(4-ethylpyridin-3-yl)azetidine-1-carbonyl)-5-oxodecahydro-1H-cyclopropa[d]pyrrolo[1,2-a]azocin-6-yl)carbamoyl)benzo[b]thiophen-5-yl)methyl)phosphonic acid]	< 0.1 µM	> 30 µM
O=C(N[C@H]1C[C@@H]2C[C@@H]2C[C@H]2CC[C@@H](C(=O)N3CC[C@H](C(=O)N4CCOCC4)C3)N2C1=O)c1cc2cc(C(F)(F)P(=O)(O)O)ccc2s1 (single isomer, unassigned) [Compound 99]	0.1 to 1 µM	3 to 30 µM
Cc1cccc(C2CN(C(=O)[C@@H]3CC[C@@H]4C[C@@H]5C[C@@H]5C[C@H](NC(=O)c5cc6cc(C(F)(F)P(=O)(O)O)ccc6s5)C(=O)N43)C2)n1 [Compound 60, (difluoro(2-(((3S,6S,7aR,8aS,9aR)-3-(3-(6-methylpyridin-2-yl)azetidine-1-carbonyl)-5-oxodecahydro-1H-cyclopropa[d]pyrrolo[1,2-a]azocin-6-yl)carbamoyl)benzo[b]thiophen-5-yl)methyl)phosphonic acid]	< 0.1 µM	0.3 to 3 µM
O=C(N[C@H]1C[C@@H]2C[C@@H]2C[C@H]2CC[C@@H](C(=O)N3CC(n4ccnc4)C3)N2C1=O)c1cc2cc(CP(=O)(O)O)ccc2s1 [Compound 24, ((2-(((3S,6S,7aS,8aR,9aR)-3-(3-(1H-imidazol-1-yl)azetidine-1-carbonyl)-5-oxodecahydro-1H-cyclopropa[d]pyrrolo[1,2-a]azocin-6-yl)carbamoyl)benzo[b]thiophen-5-yl)methyl)phosphonic acid]	0.1 to 1 µM	> 30 µM
